From the supplement of paper PMC13380429

Tests used:
Details in all cases: 72 h
Vero E6 [1] = assay: relative viability EC50 (midpoint between 100% and the lowest measured viability); higher = less toxic
HepG2 [2] = assay: as above
U2OS [3] = assay: as above
Caco-2 [4] = assay: as above
Calu-3 [5] = assay: as above
Vero E6 [6] = assay: cell viability relative to DMSO; higher = less toxic
HepG2 [7] = assay: as above
U2OS [8] = assay: as above
Caco-2 [9] = assay: as above
Calu-3 [10] = assay: as above
Vero E6 [11] = assay: drug sensitivity score (DSS) for viability; higher = more toxic; extreme values may be limits of the assay
HepG2 [12] = assay: as above
U2OS [13] = assay: as above
Caco-2 [14] = assay: as above
Calu-3 [15] = assay: as above

| SMILES | relative viability EC50 (Vero E6 [1]) | relative viability EC50 (HepG2 [2]) | relative viability EC50 (U2OS [3]) | relative viability EC50 (Caco-2 [4]) | relative viability EC50 (Calu-3 [5]) | cell viability (Vero E6 [6]; 1 nM) | cell viability (Vero E6 [6]; 10 nM) | cell viability (Vero E6 [6]; 100 nM) | cell viability (Vero E6 [6]; 1000 nM) | cell viability (Vero E6 [6]; 10000 nM) | cell viability (HepG2 [7]; 1 nM) | cell viability (HepG2 [7]; 10 nM) | cell viability (HepG2 [7]; 100 nM) | cell viability (HepG2 [7]; 1000 nM) | cell viability (HepG2 [7]; 10000 nM) | cell viability (U2OS [8]; 1 nM) | cell viability (U2OS [8]; 10 nM) | cell viability (U2OS [8]; 100 nM) | cell viability (U2OS [8]; 1000 nM) | cell viability (U2OS [8]; 10000 nM) | cell viability (Caco-2 [9]; 1 nM) | cell viability (Caco-2 [9]; 10 nM) | cell viability (Caco-2 [9]; 100 nM) | cell viability (Caco-2 [9]; 1000 nM) | cell viability (Caco-2 [9]; 10000 nM) | cell viability (Calu-3 [10]; 1 nM) | cell viability (Calu-3 [10]; 10 nM) | cell viability (Calu-3 [10]; 100 nM) | cell viability (Calu-3 [10]; 1000 nM) | cell viability (Calu-3 [10]; 10000 nM) | drug sensitivity score (Vero E6 [11]) | drug sensitivity score (HepG2 [12]) | drug sensitivity score (U2OS [13]) | drug sensitivity score (Caco-2 [14]) | drug sensitivity score (Calu-3 [15]) |
| --- | --- | --- | --- | --- | --- | --- | --- | --- | --- | --- | --- | --- | --- | --- | --- | --- | --- | --- | --- | --- | --- | --- | --- | --- | --- | --- | --- | --- | --- | --- | --- | --- | --- | --- | --- |
| CCCC(=O)O[C@]1(C(=O)CO)CC[C@H]2[C@@H]3CCC4=CC(=O)CC[C@]4(C)[C@H]3[C@@H](O)C[C@@]21C [hydrocortisone-butyrate] | > 10 µM | > 10 µM | > 10 µM | > 10 µM | > 10 µM | 95.5% | 99% | 91.5% | 102% | 105% | 95.1% | 102% | 93.8% | 102% | 101% | 97% | 95.8% | 97.1% | 95.3% | 95.6% | 103% | 95.2% | 98.4% | 104% | 102% | 109% | 101% | 102% | 95.8% | 89.1% | 0 | 0 | 0 | 0 | 0.1 |
| O=C(/C=C/c1cccnc1)NCCCCC1CCN(C(=O)c2ccccc2)CC1 [FK-866] | 0.0361 µM | 0.0092 µM | 0.0303 µM | 0.0134 µM | 0.0392 µM | 106% | 106% | 2.7% | 1.2% | 1.9% | 84.6% | 57.9% | 16.6% | 11.3% | 11.7% | 97.8% | 98.1% | 0% | -0.5% | 0% | 93.7% | 65% | 5.8% | 5% | 5.6% | 110% | 112% | 7% | 5.1% | 4.6% | 29.4 | 31.9 | 30.7 | 33.2 | 28.1 |
| C[N+]1(C)[C@@H]2CC[C@H]1C[C@@H](OC(=O)C(CO)c1ccccc1)C2 (stereo not given in full) [methylatropine-nitrate] | > 10 µM | > 10 µM | > 10 µM | > 10 µM | > 10 µM | 95.6% | 98.8% | 95.3% | 99.1% | 104% | 96.7% | 105% | 102% | 98.7% | 99.8% | 95.4% | 95.4% | 100% | 100% | 101% | 96.9% | 93.4% | 108% | 104% | 99.6% | 93% | 100% | 108% | 97.2% | 106% | 0 | 0 | 0 | 0 | 0 |
| O=C(O)c1ccccc1Nc1cc(Cl)ccc1C(=O)O [lobenzarit] | > 10 µM | > 10 µM | > 10 µM | > 10 µM | > 10 µM | 97.7% | 97.3% | 86% | 87.4% | 114% | 106% | 109% | 95.6% | 103% | 105% | 91.3% | 96% | 101% | 96.9% | 104% | 95.9% | 101% | 99.1% | 93.1% | 98.2% | 111% | 88.1% | 108% | 95.2% | 90.3% | 0 | 0 | 0 | 0 | 0.2 |
| CCCC[N+]1(C)[C@@H]2C[C@@H](OC(=O)[C@H](CO)c3ccccc3)C[C@H]1[C@@H]1O[C@@H]12 (stereo not given in full) [butylscopolamine-bromide] | > 10 µM | > 10 µM | > 10 µM | > 10 µM | > 10 µM | 97.4% | 95.9% | 96.5% | 95.6% | 108% | 102% | 106% | 92.9% | 102% | 115% | 99.1% | 94.7% | 101% | 96.3% | 99.7% | 92.8% | 98.3% | 104% | 94.7% | 98.2% | 110% | 83.9% | 99.5% | 90.9% | 106% | 0 | 0 | 0 | 0 | 0 |
| NCCc1ccc(O)c(O)c1 [dopamine] | > 10 µM | > 10 µM | > 10 µM | > 10 µM | > 10 µM | 103% | 106% | 102% | 97% | 99.4% | 106% | 107% | 95.1% | 115% | 99.6% | 101% | 96.6% | 101% | 100% | 100% | 106% | 97.7% | 92.5% | 91.1% | 89.9% | 100% | 100% | 100% | 99.8% | 109% | 0 | 0 | 0 | 0 | 0 |
